Assay: Solid-state (polymorphic) stability of the crystalline form under humidity, temperature and mass pressure stress
Type: physicochemical
Description: As used herein, the term “stable” in relation to crystalline Rivoceranib and Rivoceranib mesylate refers to less than 20%, less than 10%, less than 5%, less than 2%, less than 1%, or less than 0.5% conversion of crystalline Rivoceranib or Rivoceranib mesylate to any other solid state form of Rivoceranib or Rivoceranib mesylate, respectively.
As discussed above, depending on which other solid state it is compared with, Form RT2 of Rivoceranib according to the present disclosure may have advantageous properties as described above. Particularly, crystalline Form RT2 of Rivoceranib mesylate of the present disclosure is stable, for example upon exposure to high humidity or high temperature or high mass pressure conditions, such as 60° C./100% RH for up to 7 days or 80% RH at room temperature for 2 days, or under 100° C. for 60 minutes or under mass pressure of 2 ton for 1 minute.

CS(=O)(=O)O.N#CC1(c2ccc(NC(=O)c3cccnc3NCc3ccncc3)cc2)CCCC1 [Form RT2, N-[4-(1-Cyanocyclopentyl)phenyl]-2-(pyridin-4-ylmethylamino)pyridine-3-carboxamide methanesulfonate]
stable: stability upon exposure to high humidity and temperature (60° C./100% RH for up to 7 days) | stability upon exposure to high humidity (80% RH at room temperature for 2 days) | stability upon exposure to high temperature (100° C. for 60 minutes) | stability under high mass pressure (mass pressure of 2 ton for 1 minute)

Reference: patent US12043597B2, “Crystalline polymorphs of Rivoceranib and Rivoceranib mesylate” (ASSIA CHEMICAL INDUSTRIES LTD., priority 2018, dated 2024)
